Measurements from patent publication US10822376B2, “Biologically active peptides” (Baxalta Incorporated, priority 2008, dated 2020).
Values after ≈ are worked out from the molar mass of the structure shown. *1 amine or outer side, *2 acyl side, *3 side chain or, on linkers, in order; H or OH if unused. Where a SMILES comes first, the peptide text is derived from it. Bridges are numbered along the chain shown (N, C = ends). Where no end group is shown, it is not given here. [ ]: non-standard residue; d: D form. The star is where a group is joined. NH(CH2)3(OCH2CH2)2O(CH2)3NH = C(CN[*:1])COCCOCCOCCCN[*:2]; X2 = NCCCC[C@H](N)C(=O)NCCCOCCOCCOCCCN*; X1 = NC(=O)CCC(=O)NCCCOCCOCCOCCCN*; Suc = O=C(CCC(=O)[*:2])[*:1]

Tests used:
[1] = Plasma stability; conditions: human
[2] = test system: human FVIII inhibited plasma; experiment: Defined Intrinsic Thrombin Generation Assay (DITGA, triggered by FXIa and phospholipids); format: biochemical; conditions: for Activity in the Defined Intrinsic Thrombin Generation Assay: summary
From the text: (§1) The intrinsic pathway of thrombin generation may be assayed in a thrombin generation assay by including FXIa and phospholipids. In such an assay, which is similar to an activated partial thromboplastin time (aPTT) test, thrombin generation is solely directed through the intrinsic pathway, and is FVIII dependent. A suitable assay is the Defined Intrinsic Thrombin Generation Assay described below. Alternatively, by employing low concentrations of TF and phospholipids instead of FXIa and phospholipids, thrombin is generated by both the extrinsic (tissue factor) and the intrinsic pathways. This form of the thrombin generation assay is the more physiologic one, as both thrombin generation pathways are involved; it is partially FVIII dependent. A suitable assay is the Defined Dual-Pathway Thrombin Generation Assay.
The Defined Intrinsic Thrombin Generation Assay is performed as follows. FVIII activity of human plasma is inhibited by incubating (2 hours, 37° C.) 40 μl of human normal plasma with 10 μl heat inactivated anti-human FVIII plasma raised in goat (600 BU/ml, 6 hours incubated at 56° C.). […] Instead of FVIII-inhibited plasma, FVIII inhibitor patient plasma or several depleted plasmas can be used. The micro-plate is immediately put into a GENios Plus (Tecan) or Safire 2 (Tecan) fluorescence reader and the fluorescence signal (ex 340 nm/em 440 nm) is followed kinetically by reading the plate every 21 seconds.
For calculation of activity equivalent units experiments are performed with dilutions of Factor Eight Inhibitor Bypassing Agent (FEIBA, Baxter AG), Immunate (human FVIII, purified plasma derived) reference standard (Baxter AG) or Recombinate standard (human FVIII, purified recombinant, Baxter AG). A linear fit of the logarithm of FEIBA (FVIII) concentration plotted against thrombin generation time at peak thrombin results in a standard curve. With this curve FEIBA (FVIII) equivalent activity is calculated for a defined peptide concentration. […] Thus, where a concentration of 100 μM is given, the actual concentration in the final assay volume in 40 μM.
Compounds were screened using the “Defined intrinsic thrombin generation assay” in which thrombin generation was quantified in vitro in FVIII-inhibited human plasma in the presence of Factor XIa and phospholipid vesicles. Further compounds were screened in the above assay, and in the “Defined dual-pathway thrombin generation assay” using tissue factor and phospholipids instead of Factor XIa and phospholipids, as described in the specific description.
Various concentrations of each peptide were tested in the defined intrinsic thrombin generation assay using human FVIII inhibited plasma.

[3] = physchem; conditions: for solubility kinetic: pH 7.4
Experimental: (§5) Aqueous solubility is measured in PBS at pH 7.4 either in an assay provided by Cerep (France, Catalog ref. 900-11a) or according to the following protocol. The aim of this procedure is to determine the solubility of a drug candidate (analyte) in a buffer, by estimating the saturation concentration of the candidate in the buffer using HPLC. A known concentration of the candidate in an organic solvent is used as a standard. A stock solution of the test compound in DMSO must be prepared as the initial step. […] DMSO stock-solutions are diluted to a final concentration of 50 μM with DMSO (100% reference-solution) and buffer (test-solution) to provide a minimum volume of 500 μL of each. Both solutions are shaken at 25° C. at 950 rpm in an Eppendorf “thermomixer comfort” for at least 60 min. The suspension is centrifuged at 22 330 g for at least two min and 100 μL of the supernatant is transferred into polypropylene-inserts placed in glass vials and closed by snap-ring caps. Alternatively the solutions can be prepared in microtiter plates with half of the previously described starting solvent volume. For the determination of the solubility all samples are analyzed by HPLC in triplicate. Injection volume is at least 10 μL. The obtained data are analyzed by “Chemstation-software” (Agilent, Waldbronn, Germany). The peaks from the analyses of the organic solutions are integrated and the arithmetic mean is reported as “AUC 1” (reference area of known amount injected at the HPLC). […] The ratio of the mean “AUC 2” and “AUC 1” is calculated and thus the percentage of the dissolved amount of compound in buffer is obtained and solubility can be reported in μM.

[4] = test system: FVIII deficient plasma; experiment: Defined Dual-Pathway Thrombin Generation Assay (DDPTGA, reagent C high), FVIII deficient plasma; format: biochemical, human; conditions: FVIII deficient plasma
From the text: as §1
(§2) Preferably, Reagent C high is used.
(§3) Tissue factor dependency of peak thrombin generation and thrombin peak time was characterised in a composition containing a fixed concentration of phospholipid (namely 3.2 μM). Phospholipid dependency was characterised in a composition containing a fixed concentration of tissue factor (namely 7.2 μM). Peak time (time to peak thrombin generation) was dependent on the concentration of phospholipid or tissue factor. The final version of this assay is as described in the specific description, in which 10 μl reagent C high containing (32 μM phospholipid and 71.6 μM tissue factor) is used in a total volume of 100 μl.
(§4) Further studies were conducted using 3.2 μM phospholipid and 7.2 μM tissue factor in FVIII deficient or inhibited plasma, to characterise the effect on peak thrombin generation and thrombin peak time of various coagulation factor preparations. These studies provided a basis from which to compare the efficacy of the compounds in the assay. Briefly, rFVIII (Recombinate® FVIII from Baxter) was tested at 0, 5, 10, 20, 40 and 80 mU/ml in FVIII deficient plasma. FEIBA was tested at 0, 8, 16, 31, 63 and 125 mU/ml in FVIII inhibited plasma. FVIIa was tested at 0, 0.1, 0.4, 1.6, 6.3 and 25 nM in FVIII inhibited plasma. […] Peak thrombin increased and both the lag time and the thrombin peak time decrease.

[5] = test system: Factor VIII deficient human plasma; experiment: DDPTGA (reagent B) in FVIII depleted plasma; format: biochemical; conditions: compounds at 50 μM and 80, 90 or 100 μM; note: key: '+' means stimulates; '−' means does not stimulate
From the text: as §2

[6] = test system: FVIII inhibited plasma; experiment: Defined Dual-Pathway Thrombin Generation Assay (DDPTGA, reagent C high), FVIII inhibited plasma; format: biochemical, human; conditions: for Peak IIa FEIBA EU / Peak IIa FVIIa EU / Peak Time FEIBA EU / Peak Time FVIIa EU: FVIII inhibited plasma; for Activity in the Defined Dual-Pathway Thrombin Generation Assay: summary, FVIII inhibited or deficient plasma
From the text: as §1, §2, §3, §4

[7] = pH 7.4
Experimental: as §5

[8] = in vitro; conditions: human, pH 7.4
[9] = in vitro; conditions: mouse, pH 7.4
[10] = target: HERG channel (Homo sapiens, UniProt Q12809); experiment: HERG inhibition, patch clamp assay
HERG channel, sequence (Q12809 whole entry): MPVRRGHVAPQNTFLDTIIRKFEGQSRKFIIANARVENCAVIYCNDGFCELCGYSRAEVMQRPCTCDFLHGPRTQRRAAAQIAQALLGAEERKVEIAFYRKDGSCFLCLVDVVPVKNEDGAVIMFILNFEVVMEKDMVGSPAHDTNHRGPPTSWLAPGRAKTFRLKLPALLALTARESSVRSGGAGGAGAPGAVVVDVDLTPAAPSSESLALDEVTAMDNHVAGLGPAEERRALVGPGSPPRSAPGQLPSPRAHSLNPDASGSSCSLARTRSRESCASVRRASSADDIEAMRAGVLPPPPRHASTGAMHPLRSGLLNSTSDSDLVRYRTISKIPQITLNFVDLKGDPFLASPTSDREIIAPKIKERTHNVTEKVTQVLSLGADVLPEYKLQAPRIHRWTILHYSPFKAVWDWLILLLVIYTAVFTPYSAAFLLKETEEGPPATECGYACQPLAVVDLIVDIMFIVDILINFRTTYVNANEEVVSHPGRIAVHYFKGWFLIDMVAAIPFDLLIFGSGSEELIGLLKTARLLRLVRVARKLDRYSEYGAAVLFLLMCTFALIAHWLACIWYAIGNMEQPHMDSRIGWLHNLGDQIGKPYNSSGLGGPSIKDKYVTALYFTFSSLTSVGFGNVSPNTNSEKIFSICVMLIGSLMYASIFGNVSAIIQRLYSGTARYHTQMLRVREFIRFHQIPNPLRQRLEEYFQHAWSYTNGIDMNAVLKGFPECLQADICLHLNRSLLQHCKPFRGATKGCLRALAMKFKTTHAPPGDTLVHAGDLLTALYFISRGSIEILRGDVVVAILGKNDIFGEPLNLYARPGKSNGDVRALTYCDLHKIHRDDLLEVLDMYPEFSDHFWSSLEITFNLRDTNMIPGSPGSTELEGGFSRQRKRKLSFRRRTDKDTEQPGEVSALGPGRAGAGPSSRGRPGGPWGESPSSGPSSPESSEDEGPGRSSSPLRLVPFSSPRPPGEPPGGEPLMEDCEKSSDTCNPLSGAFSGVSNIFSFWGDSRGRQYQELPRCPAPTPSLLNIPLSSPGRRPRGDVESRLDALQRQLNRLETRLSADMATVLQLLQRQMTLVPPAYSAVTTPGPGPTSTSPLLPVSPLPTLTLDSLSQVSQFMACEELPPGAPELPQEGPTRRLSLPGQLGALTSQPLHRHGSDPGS
Experimental: QT prolongation is assessed by HERG inhibition measured by patch-clamp techniques or Rb^+ efflux.
For rigorous characterization of HERG inhibition the patch clamp assay is applied (Cerep, France, Catalog ref. 900-36). […] The test compounds (10 mM stock solutions) were dissolved in dimethylsulfoxide (DMSO). The solutions at 1 μM contained 0.01% DMSO.

Row | Compound | remaining at 0.5 h, 5 μM [1] | Thrombin peak time given as FEIBA equivalent activity ([2]; peptide 12.5 μM) | Thrombin peak time given as FEIBA equivalent activity ([2]; peptide 25 μM) | Thrombin peak time given as FEIBA equivalent activity ([2]; peptide 50 μM) | Thrombin peak time given as FEIBA equivalent activity ([2]; peptide 100 μM) | Activity in the Defined Intrinsic Thrombin Generation Assay [2] | solubility kinetic [3] | Peak IIa FVIII EU ([4]; peptide 50 μM) | Peak Time FVIII EU ([4]; peptide 50 μM) | Peak IIa FEIBA EU ([6]; peptide 50 μM) | Peak IIa FVIIa EU ([6]; peptide 50 μM) | Peak Time FEIBA EU ([6]; peptide 50 μM) | Peak Time FVIIa EU ([6]; peptide 50 μM) | Activity in the Defined Dual-Pathway Thrombin Generation Assay [6] | Peak IIa FVIII EU ([4]; peptide 100 μM) | Peak Time FVIII EU ([4]; peptide 100 μM) | Peak IIa FEIBA EU ([6]; peptide 100 μM) | Peak IIa FVIIa EU ([6]; peptide 100 μM) | Peak Time FEIBA EU ([6]; peptide 100 μM) | Peak Time FVIIa EU ([6]; peptide 100 μM) | also measured
1 | CSCC[C@H]1NC(=O)[C@@H](Cc2ccc(O)cc2)NC(=O)[C@H](NC(=O)CCC(=O)NCCCOCCOCCOCCCNC(=O)[C@@H](N)CCCCN)CSSC[C@H](C(=O)N[C@H](Cc2ccc(O)cc2)C(=O)N[C@H](CCC(=O)O)C(N)=O)NC(=O)[C@@H](CC(=O)O)NC(=O)[C@@H](Cc2ccc(O)cc2)NC(=O)[C@@H](Cc2c[nH]c3ccccc23)NC(=O)[C@@H](Cc2ccccc2)NC1=O [Peptide B06, K-TTDS-(cymfwydc)-ye-NH2] ({X2-Suc}-[dC][dY][dM][dF][dW][dY][dD][dC][dY][dE]-NH2; disulfide 1-8) | 93% | 95 mU/ml | 157 mU/ml | 172 mU/ml | 378 mU/ml | possess activity | 48 µM (≈ 88.8 µg/mL) | – | – | – | – | – | – | – | – | – | – | – | – | – | Thrombin peak time given as FEIBA equivalent activity ([2]; peptide 200 μM): 902 mU/ml; solubility ([3]; pH 7.4, Solubility in PBS pH 7.4): ≥ 25 µM
2 | CC[C@H](C)[C@H](NC(=O)[C@H](CCC(=O)O)NC(=O)[C@H](Cc1ccccc1)NC(=O)[C@H](Cc1ccc(O)cc1)NC(=O)[C@H](CC(C)C)NC(=O)[C@H](CC(=O)O)NC(=O)[C@H](Cc1c[nH]c2ccccc12)NC(=O)[C@@H](NC(=O)[C@H](CC(=O)O)NC(=O)[C@H](Cc1ccccc1)NC(=O)[C@H](CCC(=O)O)NC(=O)[C@H](CCSC)NC(=O)[C@H](CCCNC(=N)N)NC(=O)CCC(=O)NCCCOCCOCCOCCCN)C(C)C)C(=O)N[C@H](C(=O)N[C@@H](Cc1c[nH]c2ccccc12)C(=O)NCCCOCCOCCOCCCNC(=O)CCC(N)=O)C(C)C [Peptide A08] ({NH(CH2)3(OCH2CH2)2O(CH2)3NH-Suc}-RMEFDVWDLYFEIVW-X1) | 70% | 656 mU/ml | 764 mU/ml | 958 mU/ml | 1213 mU/ml | possess activity | 11 µM (≈ 29.2 µg/mL) | BLS (BLS = below lowest standard.) | BLS (BLS = below lowest standard.) | BLS (BLS = below lowest standard.) | BLS (BLS = below lowest standard.) | 9.1 mU/ml | 0.4 nM | possess activity | – | – | – | – | – | – | Thrombin peak time given as FEIBA equivalent activity ([2]; peptide 6.25 μM): 563 mU/ml; Stimulation of thrombin generation [5]: +
3 | PEG5000-WSLYFEIVWE [Peptide A17] | – | – | – | – | – | – | – | BLS (BLS = below lowest standard.) | 5.1 mU/ml | BLS (BLS = below lowest standard.) | BLS (BLS = below lowest standard.) | BLS (BLS = below lowest standard.) | BLS (BLS = below lowest standard.) | possess activity | BLS (BLS = below lowest standard.) | 5.9 mU/ml | BLS (BLS = below lowest standard.) | BLS (BLS = below lowest standard.) | BLS (BLS = below lowest standard.) | 0.1 nM | Aqueous solubility [7]: 2000 µM
4 | CC(=O)CC(c1ccccc1)c1c(O)c2ccccc2oc1=O (centres unmarked) [Warfarin, warfarin] | – | – | – | – | – | – | – | – | – | – | – | – | – | – | – | – | – | – | – | – | recovery at 6 h, 10 μM [8]: 99.3%; recovery at 6 h, 10 μM [9]: 88.6%
5 | PEG5000-RMKFDVWDLYFEIVW-NH2 [Peptide A16] | – | – | – | – | – | – | – | BLS (BLS = below lowest standard.) | BLS (BLS = below lowest standard.) | BLS (BLS = below lowest standard.) | BLS (BLS = below lowest standard.) | BLS (BLS = below lowest standard.) | BLS (BLS = below lowest standard.) | – | BLS (BLS = below lowest standard.) | BLS (BLS = below lowest standard.) | BLS (BLS = below lowest standard.) | BLS (BLS = below lowest standard.) | BLS (BLS = below lowest standard.) | BLS (BLS = below lowest standard.) | Aqueous solubility [7]: 220 µM; Solubility in PBS [7]: >200 µM; Classification as HERG-channel blocker (potency ranking of Roche et al.) [10]: low-potency
6 | Ac-RMDFDVWDLYFEIVW-NH2 [Peptide A03] | 92% | 639 mU/ml | 762 mU/ml | 1069 mU/ml | 1396 mU/ml | possess activity | 110 µM | BLS (BLS = below lowest standard.) | BLS (BLS = below lowest standard.) | BLS (BLS = below lowest standard.) | BLS (BLS = below lowest standard.) | BLS (BLS = below lowest standard.) | BLS (BLS = below lowest standard.) | possess activity | BLS (BLS = below lowest standard.) | BLS (BLS = below lowest standard.) | BLS (BLS = below lowest standard.) | BLS (BLS = below lowest standard.) | BLS (BLS = below lowest standard.) | BLS (BLS = below lowest standard.) | Thrombin peak time given as FEIBA equivalent activity ([2]; peptide 6.25 μM): 477 mU/ml
